# Source: patent publication US7544497B2, “Compositions for manipulating the lifespan and stress response of cells and organisms” (President and Fellows of Harvard College, priority 2003, dated 2009)
# Columns and labels:
# [1] = test system: S. cerevisiae; assay: Yeast replicative lifespan by micro-manipulation; details: for Average lifespan, growth on resveratrol: wild type untreated 21.0
# [2] = molecular target: T1, Human recombinant SIRT2 (Homo sapiens, UniProt Q8IXJ6); assay: SIRT2 deacetylation assay (Fluor de Lys-SIRT2); type: biochemical; details: 25 μM Fluor de Lys-SIRT2, 25 μM NAD+, 20 minutes, 37° C.
# T1 sequence (Q8IXJ6 1-389): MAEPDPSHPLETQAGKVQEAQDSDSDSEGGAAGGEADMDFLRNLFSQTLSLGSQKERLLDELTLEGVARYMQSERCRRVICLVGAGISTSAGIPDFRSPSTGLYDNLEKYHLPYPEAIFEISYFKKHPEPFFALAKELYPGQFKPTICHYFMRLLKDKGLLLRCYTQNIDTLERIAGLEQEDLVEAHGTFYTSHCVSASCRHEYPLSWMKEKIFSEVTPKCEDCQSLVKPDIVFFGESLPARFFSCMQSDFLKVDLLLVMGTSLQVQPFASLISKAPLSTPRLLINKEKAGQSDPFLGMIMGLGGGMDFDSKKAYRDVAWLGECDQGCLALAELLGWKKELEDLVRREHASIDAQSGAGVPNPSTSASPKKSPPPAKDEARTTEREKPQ
# Description: Yeast Sir2 and human SIRT1 are very homologous and differ from human SIRT2 by the addition of an N-terminal domain that is absent in SIRT2. […] Thus, based on the difference in structure of SIRT1 and SIRT2, i.e., the absence of an N-terminal domain (see FIG. 8), it is believed that the N-terminal domain of SIRT1 and Sir2 is necessary for activation by the compounds described herein. In particular, it is likely that the activator compounds described herein interact with the N-terminal portion of sirtuins. The N-terminal portion of SIRT1 that is necessary for the action of the compounds is from about amino acid 1 to about amino acid 176, and that of Sir2 is from about amino acid 1 to about amino acid 175.
# [3] = molecular target: T2, recombinant human SIRT1 (Homo sapiens, UniProt Q96EB6); assay: SIRT1 fluorescent deacetylation assay (p53-382 acetylated peptide substrate); type: biochemical; details: 100 μM resveratrol
# T2 sequence (Q96EB6 1-747): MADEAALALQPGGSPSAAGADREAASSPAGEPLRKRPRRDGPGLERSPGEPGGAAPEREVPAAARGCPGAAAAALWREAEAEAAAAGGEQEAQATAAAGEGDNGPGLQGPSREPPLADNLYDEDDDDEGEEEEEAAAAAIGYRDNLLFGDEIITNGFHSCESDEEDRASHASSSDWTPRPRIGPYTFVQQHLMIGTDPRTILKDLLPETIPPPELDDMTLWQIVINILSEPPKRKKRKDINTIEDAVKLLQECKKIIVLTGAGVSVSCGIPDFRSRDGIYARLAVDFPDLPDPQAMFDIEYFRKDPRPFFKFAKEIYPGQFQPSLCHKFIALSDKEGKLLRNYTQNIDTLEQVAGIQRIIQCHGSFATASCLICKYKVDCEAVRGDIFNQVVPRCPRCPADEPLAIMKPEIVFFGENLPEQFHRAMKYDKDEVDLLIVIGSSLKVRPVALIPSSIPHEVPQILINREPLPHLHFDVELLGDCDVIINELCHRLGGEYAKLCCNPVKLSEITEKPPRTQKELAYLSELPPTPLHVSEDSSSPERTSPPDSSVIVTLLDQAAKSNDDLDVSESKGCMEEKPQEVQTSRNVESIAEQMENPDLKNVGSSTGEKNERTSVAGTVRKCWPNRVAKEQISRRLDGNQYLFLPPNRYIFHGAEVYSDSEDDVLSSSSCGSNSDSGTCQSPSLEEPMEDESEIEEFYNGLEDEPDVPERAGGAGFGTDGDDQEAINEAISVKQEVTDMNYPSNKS
# Description: To identify compounds that modulate SIRT1 activity, we screened a number of small molecule libraries using a fluorescent deacetylation assay in 96-well plates^26. The substrate used in the assay was a fluorogenic peptide based on the sequence encompassing the p53-K382 acetylation site, a known target of SIRT1 in vivo^20,21,27. This substrate was preferred over a variety of other fluorogenic peptide substrates that were based on other known HDAC targets (FIG. 5). The small molecule libraries included analogues of nicotinamide, ε-acetyl lysine, NAD^+, nucleotides, nucleotide analogues and purinergic ligands. From the initial screen, several sirtuin inhibitors were found (Supplementary Table 7). However, the most striking outcome was the identification of two compounds, quercetin and piceatannol, that stimulated SIRT1 activity five and eight-fold, respectively (Table 1). Both quercetin and piceatannol have been previously identified as protein kinase inhibitors^28,29.
# His6-tagged recombinant SIRT1 and GST-tagged recombinant Sir2 were prepared as previously described^26. From 0.1 to 1 μg of SIRT1 and 1.5 μg of Sir2 were used per deacetylation assay (in 50 μl total reaction) as previously described^26. SIRT1 assays and certain of those for Sir2 employed the p53-382 acetylated substrate (‘Fluor de Lys-SIRT1’, BIOMOL) rather than FdL.
# Themed compound libraries (BIOMOL) were used for primary and secondary screening. […] For water soluble compounds and negative controls, 1% v/v DMSO was added to the assay. […] HeLa cells were grown and the cellular deacetylation assays were performed and read, as above, but in full-volume 96-well microplates (Corning Costar 3595). Unless otherwise indicated all initial rate measurements were means of three or more replicates, obtained with single incubation times, at which point 5% or less of the substrate initially present had been deacetylated. Calculation of net fluorescence increases included subtraction of a blank value, which in the case of Sir2 was obtained by omitting the enzyme from the reaction and in the case of SIRT1 by adding an inhibitor (200 μM suramin or 1 mM nicotinamide) to the reaction prior to the acetylated substrate. […] All error bars represent the standard error of the mean.
# All SIRT1 rate measurements used in the calculation of “Ratio to Control Rate” were obtained with 25 μM NAD^+ and 25 μM p53-382 acetylated peptide substrate were performed as described above and in K. T. Howitz et al. Nature (2003) 425: 191. All ratio data were calculated from experiments in which the total deacetylation in the control reaction was 0.25-1.25 μM peptide or 1-5% of the initial concentration of acetylated peptide.
# [4] = test system: rDNA silencing; assay: Ribosomal DNA silencing assay (URA3 reporter); type: cell-based, S. cerevisiae
# Procedure: Ribosomal DNA silencing assays using the URA3 reporters were performed as previously described^26. Ribosomal DNA recombination frequencies were determined by plating W303AR cells^37 on YPD medium with low adenine/histidine and counting the fraction of half-red sectored colonies using Bio-Rad Quantity One software as previously described^35. At least 6000 cells were analyzed per experiment and all experiments were performed in triplicate. All strains were pre-grown for 15 hours with the relevant compound prior to plating.
smiles,measurement,setting,value
"Oc1ccc(/C=C/c2cc(O)cc(O)c2)cc1 [Resveratrol, 3,5,4′-Trihydroxy-trans-stilbene]",Average lifespan,"[1]; 10 μM, complete 2% glucose medium, wild type untreated 22.9",36.8 generations
same,"Average lifespan, growth on resveratrol",[1]; 10 μM,35.7 generations
same,"Average lifespan, growth on resveratrol",[1]; 100 μM,29.4 generations
same,"Average lifespan, growth on resveratrol",[1]; 500 μM,29.3 generations
same,"Average lifespan, glucose-restricted+resveratrol (CR+R)",[1]; glucose restriction,39.9 generations
same,"Average lifespan, pnc1Δ+resveratrol",[1]; pnc1Δ untreated 19.2,33.1 generations
same,"Average lifespan, sir2Δ+resveratrol",[1]; sir2Δ untreated 9.9,10.0 generations
same,"Average lifespan, wild type+resveratrol (wt+R)",[1]; wild type untreated 19.0,37.8 generations
same,effect of increasing concentrations on SIRT2 activity,[2],decrease
same,"Vmax (+resveratrol), NAD+ varied","[3]; 1 mM p53-382 acetylated peptide, control 1863",1749 AFU/min.
same,"Vmax (+resveratrol), p53-382 acetylated peptide varied","[3]; 3 mM NAD+, control 1107",926 AFU/min.
same,effect on rDNA silencing,[4],only minor effects
